Usually IC50 stands for the point on the concentration scale where inhibition reaches its midpoint.

For this test, the system named is rat pituitary cells. Format: cell-based. The following applies: 3 h. In a few lines:
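GH radioimmunoassay of medium after 3 h, 37° C incubation of cultured rat anterior pituitary cells with antagonist (6 doses) against 1 nM somatostatin in presence of 1 nM GRF(1-29)NH2; medium 199, 1% BSA, triplicates. IC50 derived by curve fit with top fixed at GRF-only control response.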

Positions of bridges follow the written chain, without caps; N, C: chain ends. Non-standard residues stand in square brackets, D forms with d. Residues, ends and D or L forms follow the SMILES beside them. Phe(4-Cl) = N[C@@H](Cc1ccc(Cl)cc1)C(=O)O; 2Nal = N[C@@H](Cc1ccc2ccccc2c1)C(=O)O; 3Pal = N[C@@H](Cc1cccnc1)C(=O)O; Tle = CC(C)(C)[C@H](N)C(=O)O

With `CC(C)(C)[C@@H]1NC(=O)[C@H](CCCCN)NC(=O)[C@@H](Cc2c[nH]c3ccccc23)NC(=O)[C@H](Cc2cccnc2)NC(=O)[C@H](NC(=O)[C@@H](N)Cc2c[nH]c3ccccc23)CSSC[C@@H](C(=O)N[C@@H](Cc2ccc3ccccc3c2)C(N)=O)NC1=O` [Analog No. 54, H2-Trp-D-Cys-Pal-D-Trp-Lys-Tle-Cys-β-Nal-NH2] (H-W[dC][3Pal][dW]K[Tle]C[2Nal]-NH2; disulfide 2-7), the IC50 is 29 nM.

Take `CC(C)[C@@H]1NC(=O)[C@H](CCCCN)NC(=O)[C@@H](Cc2c[nH]c3ccccc23)NC(=O)[C@H](Cc2cccnc2)NC(=O)[C@H](NC(=O)[C@@H](N)Cc2ccc(Cl)cc2)CSSC[C@@H](C(=O)N[C@@H](Cc2ccc3ccccc3c2)C(N)=O)NC1=O` [Analog No. 55, H2-p-Cl-Phe-D-Cys-Pal-D-Trp-Lys-Val-Cys-β-Nal-NH2] (H-[Phe(4-Cl)][dC][3Pal][dW]KVC[2Nal]-NH2; disulfide 2-7): inhibition was half-maximal at 2.6 nM (IC50).

As to `CC(C)(C)[C@@H]1NC(=O)[C@H](CCCCN)NC(=O)[C@@H](Cc2c[nH]c3ccccc23)NC(=O)[C@H](Cc2cccnc2)NC(=O)[C@H](NC(=O)[C@@H](N)Cc2ccc(Cl)cc2)CSSC[C@@H](C(=O)N[C@@H](Cc2ccc3ccccc3c2)C(N)=O)NC1=O` [Analog No. 56, H2-p-Cl-Phe-D-Cys-Pal-D-Trp-Lys-Tle-Cys-β-Nal-NH2] (H-[Phe(4-Cl)][dC][3Pal][dW]K[Tle]C[2Nal]-NH2; disulfide 2-7), half-maximal inhibition (IC50) was put at 1.8 nM.

In turn, `CC(C)(C)[C@@H]1NC(=O)[C@H](CCCCN)NC(=O)[C@@H](Cc2c[nH]c3ccccc23)NC(=O)[C@H](Cc2cccnc2)NC(=O)[C@H](NC(=O)[C@@H](N)Cc2ccc(Cl)cc2)CSSC[C@@H](C(=O)N[C@@H](Cc2ccc(Cl)cc2)C(N)=O)NC1=O` [Analog No. 57, H2-p-Cl-Phe-D-Cys-Pal-D-Trp-Lys-Tle-Cys-p-Cl-Phe-NH2] (H-[Phe(4-Cl)][dC][3Pal][dW]K[Tle]C[Phe(4-Cl)]-NH2; disulfide 2-7) came in with a concentration for half-maximal inhibition (IC50) of 5.9 nM.

Values taken from patent publication US9133262B2, “Somatostatin antagonists” (Ipsen Pharma S.A.S., priority 1996, dated 2015).
